Laboratory results reported in ChEMBL document CHEMBL1667729, “Malyngamide 2, an oxidized lipopeptide with nitric oxide inhibiting activity from a Papua New Guinea marine cyanobacterium” (J Nat Prod, 2011).
Activity calls are given as the source filed them. The calls are words filed in the database; no cut-off is given here. Numbered stars: 1 amine (or outer) side, 2 acyl side, 3 side chain; on linkers, the order of the positions; unused ones are H or OH. Square brackets hold non-standard residues; d marks the D form. Peptide text beside a SMILES is read from it. PheOxz = O=C(c1coc([C@H](Cc2ccccc2)N[*:1])n1)[*:2]; X2 = CC[C@H](C)[C@H](N[*:1])c1nc(C(=O)[*:2])co1; X1 = Cc1oc([C@@H](N[*:1])C(C)C)nc1C(=O)[*:2]

What was measured:
Neuro2a = test: Inhibition of voltage-gated sodium channel in mouse Neuro2a cells at 17.5 uM
NCI-H460 = test: Cytotoxicity against human H460 cells; format: functional, cell-based
RAW264.7 [1] = test: Anti-inflammatory activity against mouse RAW264.7 cells assessed as inhibition of LPS-induced NO production after 24 hrs; format: functional, cell-based; details: RAW264.7, 24 h
RAW264.7 [2] = test: Cytotoxicity against mouse RAW264.7 cells at 21 uM; format: functional; details: read-out: Survival

Structure (SMILES)	inhibition (Neuro2a)	IC50 (NCI-H460)	IC50 (RAW264.7 [1])	viability at 21 µM (RAW264.7 [2])
CC[C@H](C)[C@@H]1NC(=O)[C@@H]2CCCN2C(=O)[C@H](Cc2ccccc2)NC(=O)c2coc(n2)[C@H](Cc2ccccc2)NC(=O)c2nc(oc2C)[C@H](C(C)C)NC(=O)CNC(=O)[C@@H]2CCCN2C(=O)[C@@H]2CCCN2C(=O)[C@H](C)NC(=O)c2coc1n2 [WEWAKAZOLE] (cyclo(APPG[X1][PheOxz]FP[X2]))	inactive	10.1 µM	–	–
CCCCCCC[C@@H](C/C=C/CCC(=O)NC/C(=C/Cl)[C@@H]1C(=O)[C@H](O)C[C@@H](O)[C@]1(C)O)OC [MALYNGAMIDE]	–	27.3 µM	8 µM	94%
